Measured values reported in patent publication US20190247398A1, “FORMULATIONS OF A MACROCYCLIC TRK KINASE INHIBITOR” (Array BioPharma Inc., priority 2017, published 2019).
Read-outs that look alike come from different tables or passages of the source.

Legend:
[1] = acid counterion; cited from earlier work
[2] = Salt stability studies (40° C./75% RH for 1 week, XRPD); type: physicochemical
Protocol: Recovered salts were placed in an oven at 40° C./75% RH for 1 week, and the resultant materials were analyzed by XRPD to determine any changes to form or crystallinity.

[3] = Salt disproportionation studies; type: physicochemical; conditions: deionized water, 24 h, ambient temperature
Protocol: Salt disproportionation studies were carried out as follows: 20 mg of prepared salts were weighed into a vial and 0.5 mL of deionized water was added. The samples were then agitated for 24 h at ambient temperature. The pH of the samples was taken pre- and post-agitation. Any solids recovered were submitted for XRPD analysis to determine any changes to form.

[4] = 1 week stability tests (40° C./75% RH, 80° C., ambient light; XRPD and UPLC); type: physicochemical
[5] = Dynamic vapor sorption (DVS); type: physicochemical
Protocol: Approximately, 10 mg of sample was placed into a mesh vapor sorption balance pan and loaded into a DVS-1 dynamic vapor sorption balance by Surface Measurement Systems. The sample was subjected to a ramping profile from 40-90% relative humidity (RH) at 10% increments, maintaining the sample at each step until a stable weight had been achieved (99.5% step completion). After completion of the sorption cycle, the sample was dried using the same procedure to 0% RH and then a second sorption cycle back to 40% RH. The weight change during the sorption/desorption cycles were plotted, allowing for the hygroscopic nature of the sample to be determined. XRPD analysis was then carried out on any solid retained.

[6] = Hydration screen (acetone/water mixtures of various water activities); type: physicochemical; conditions: ambient
Protocol: Hydration screen was carried out as follows: 10 mg of prepared salts were suspended in several acetone/water mixtures of various water activities (low: aw=0.281, medium: aw=0.776 and high: aw=0.919) and agitated at ambient temperatures for 24 hr. Any recovered solids were submitted for XRPD analysis to determine any changes to form.

[7] = Thermodynamic solubility; type: physicochemical; conditions: for solubility thermodynamic at 24 h: thermodynamic from solid, ambient temperature, read-out: Concentration (thermodynamic solubility)
Protocol: Thermodynamic solubility studies were carried out as follows: 10 mg of prepared salts were suspended in pH 1, 4.5, 6.8 and un-buffered water (300 μL). The pH of the slurries was measured and adjusted accordingly using either 0.2M HCl solution or 0.2M sodium hydroxide solution. The slurries were agitated for 24 hours at ambient temperature using an incubator shaker.

[8] = Solvent solubility of Compound 1 free base (stepwise solvent addition to amorphous material); type: physicochemical; conditions: 40 °C, thermodynamic from solid, read-out: Approx. Solubility
Protocol: A solid Compound 1 was obtained as follows. A […] of solution containing about 330 mg of Compound 1 in warm 1,4-dioxane was divided between 33, 2 mL glass vials (1.5 mL in each). The solutions were frozen and freeze-dried by lyophilization overnight. The resulting material was then analyzed by XRPD to confirm mostly amorphous material.
Approximately 10 mg of amorphous Compound 1 was produced in 32×2 mL glass vials from freeze drying and 100 μL of the appropriate solvent system was added to the appropriate vial. Between each addition, the mixture was checked for dissolution and if no dissolution was apparent, the mixture was heated to about 40° C. and checked again. This procedure was continued until dissolution was observed or until 2 mL had been added (to the compound concentration of <5 mg/mL).

For `O=S(=O)(O)CCO` [2-Hydroxy ethanesulfonic acid], the “pKa 1” value [1] is listed as 1.66.

In the case of `C[C@@H]1CCc2ncc(F)cc2[C@H]2CCCN2c2ccn3ncc(c3n2)C(=O)N1.O=C(O)C[C@H](O)C(=O)O` [Compound 1 L-malate], the “changes to form or crystallinity after stability conditions (XRPD)” value (“changes to form or crystallinity” for short) ([2]; salt recovered from TBME) is reported as “no change to crystallinity and form”.

For `C[C@@H]1CCc2ncc(F)cc2[C@H]2CCCN2c2ccn3ncc(c3n2)C(=O)N1.O=S(=O)(O)c1ccccc1` [Compound 1 besylate], the “material recovered after salt disproportionation study (XRPD)” value [3] was “poorly crystalline free base”, the “changes to form or crystallinity” value ([2]; salt recovered from TBME) was “preferred orientation but no changes to form” and the “changes to form or crystallinity” value ([2]; salt recovered from THF) was “an increase to crystallinity but no changes to form”. For the same compound, the “changes to form or crystallinity” value ([2]; salt recovered from ethanol) was “a decrease in crystallinity”, the “change to form after 1 week stability test (XRPD)” value (“change to form” below) ([4]; 40° C./75% RH) was “a mixture of besylate salt and something else” and the “change in purity after 1 week stability test (UPLC)” value (“change in purity” below) ([4]; 80° C.) was “no change to purity”. For the same compound, the “change to form” value ([4]; 80° C.) was “no change to form”, the “change in purity” value ([4]; ambient light) was “no change to purity” and the “change to form” value ([4]; ambient light) was “no change to form”. For the same compound, the “hygroscopicity by DVS (in words)” value ([5]; DVS humidity conditions) was “low hygroscopicity”, the “change in crystalline form after exposure to DVS conditions (post-DVS XRPD)” value ([5]; after DVS cycle) was “no changes in crystalline form” and the “mass uptake (DVS)” value ([5]; at 90% RH) was “about 0.7%”. The “solid recovered from hydration screen (XRPD)” value ([6]; high water activity aw=0.919, 24 hr) was “poorly crystalline besylate salt”, the “solid recovered from hydration screen (XRPD)” value ([6]; low water activity aw=0.281, 24 hr) was “poorly crystalline besylate salt” and the solubility thermodynamic at 24 h ([7]; aqueous buffer, pH 4.5 buffer) was 12700 µg/mL. For the same compound, the “thermodynamic solubility (in words)” value ([7]; pH 1) was “highly soluble”, the “solids recovered after thermodynamic solubility study (XRPD)” value (from here on “solids recovered”) ([7]; pH 4.5) was “an unknown form” and the “thermodynamic solubility (in words)” value ([7]; pH 4.5) was “moderately soluble”. The “solids recovered” value ([7]; pH 6.8) was “poorly crystalline free base”, the “thermodynamic solubility (in words)” value ([7]; pH 6.8) was “low solubility” and the solubility thermodynamic at 24 h ([7]; pH 6.8 potassium phosphate buffer, aqueous buffer, pH 6.8 buffer) was 1900 µg/mL. For the same compound, the solubility thermodynamic at 24 h ([7]; simulated gastric fluid, pH 1 buffer) was 30800 µg/mL, the solubility thermodynamic at 24 h ([7]; un-buffered water) was 17900 µg/mL and the “solids recovered” value ([7]; un-buffered water) was “poorly crystalline free base”. For the same compound, the “thermodynamic solubility (in words)” value ([7]; un-buffered water) was “moderately soluble”.

In the case of `C[C@@H]1CCc2ncc(F)cc2[C@H]2CCCN2c2ccn3ncc(c3n2)C(=O)N1` [Compound 1 edisylate], the “changes to form or crystallinity” value ([2]; salt recovered from isopropanol) is reported as “become amorphous”.

With `C[C@@H]1CCc2ncc(F)cc2[C@H]2CCCN2c2ccn3ncc(c3n2)C(=O)N1.O=C(O)/C=C/C(=O)O` [Compound 1 fumarate] the “changes to form or crystallinity” value ([2]; salt recovered from acetone) was “a slight decrease to crystallinity however, no change to form”.

For `C[C@@H]1CCc2ncc(F)cc2[C@H]2CCCN2c2ccn3ncc(c3n2)C(=O)N1.O=C(O)C(=O)O` [Compound 1 oxalate], the “changes to form or crystallinity” value ([2]; salt recovered from ethanol) was “a change in crystallinity and form” and the “changes to form or crystallinity” value ([2]; salt recovered from methanol) was “no change to crystallinity however, changes to form were seen”.

In the case of `C[C@@H]1CCc2ncc(F)cc2[C@H]2CCCN2c2ccn3ncc(c3n2)C(=O)N1.O=C(O)CCC(=O)O` [Compound 1 succinate], the “changes to form or crystallinity” value ([2]; salt recovered from acetone) is reported as “a decrease in crystallinity but no change to form”.

For `C[C@@H]1CCc2ncc(F)cc2[C@H]2CCCN2c2ccn3ncc(c3n2)C(=O)N1.Cc1ccc(S(=O)(=O)O)cc1` [Compound 1 tosylate], the “changes to form or crystallinity” value ([2]; salt recovered from acetone) was “become amorphous”.

With `C[C@@H]1CCc2ncc(F)cc2[C@H]2CCCN2c2ccn3ncc(c3n2)C(=O)N1` [Compound 1, (6R,15R)-9-fluoro-15-methyl-2,11,16,20,21,24-hexaazapentacyclo[16.5.2.0^2,6.0^7,12.0^21,25]pentacosa-1 (24),7,9,11,18(25), 19,22-heptaen-17-one] the “change in purity” value ([4]; 40° C./75% RH) was “no change in purity”, the “change to form” value ([4]; 40° C./75% RH) was “no change to form” and the “average purity after 1 week stability test (UPLC)” value (“average purity” for short) ([4]; 40° C./75% RH (relative humidity test)) was 99.2%. For the same compound, the “average purity” value ([4]; 80° C.) was 99.3%, the “change in purity” value ([4]; 80° C.) was “no change in purity” and the “change to form” value ([4]; 80° C.) was “no change to form”. The “average purity” value ([4]; ambient light) was 99.2%, the “change in purity” value ([4]; ambient light) was “no change in purity” and the “change to form” value ([4]; ambient light) was “no change to form”. The solubility ([8]; organic solvent or mixture, in 1-Propanol) was greater than 100000 µg/mL, the solubility ([8]; organic solvent or mixture, in 2-Methyl THF) was less than 5000 µg/mL and the solubility ([8]; organic solvent or mixture, in Cyclohexane) was less than 5000 µg/mL. It also gave a solubility ([8]; organic solvent or mixture, in Cyclopentylmethyl ether) of less than 5000 µg/mL, a solubility ([8]; organic solvent or mixture, in Dichloromethane) greater than 100000 µg/mL and a solubility ([8]; organic solvent or mixture, in Diisopropyl ether) of less than 5000 µg/mL. For the same compound, the solubility ([8]; organic solvent or mixture, in Dimethylformamide) was greater than 100000 µg/mL, the solubility ([8]; organic solvent or mixture, in Ethyl acetate) was less than 5000 µg/mL and the solubility ([8]; organic solvent or mixture, in Heptane) was less than 5000 µg/mL. The solubility ([8]; organic solvent or mixture, in Isobutyl acetate) was less than 5000 µg/mL, the solubility ([8]; organic solvent or mixture, in Isopropyl acetate) was less than 5000 µg/mL and the solubility ([8]; organic solvent or mixture, in N,N-Dimethylacetamide) was greater than 100000 µg/mL. For the same compound, the solubility ([8]; organic solvent or mixture, in N-Methylpyrrolidone) was greater than 100000 µg/mL, the solubility ([8]; organic solvent or mixture, in TBME:Heptane (60:40 v/v)) was less than 5000 µg/mL and the solubility ([8]; organic solvent or mixture, in TBME) was less than 5000 µg/mL. It also gave a solubility ([8]; organic solvent or mixture, in Toluene) of less than 5000 µg/mL and a solubility ([8]; in Water) of less than 5000 µg/mL.

For `O=C(O)[C@H](O)[C@@H](O)[C@H](O)[C@H](O)CO` [D-Gluconic acid (50% in water), D-Gluconic acid], the “pKa 1” value [1] is given as 3.76.

In the case of `O=C[C@H](O)[C@@H](O)[C@H](O)[C@H](O)C(=O)O` [D-Glucuronic acid], the “pKa 1” value [1] is given as 3.18.

For `CCS(=O)(=O)O` [Ethane sulfonic acid], the “pKa 1” value [1] is given as −2.05.

In the case of `O=C(O)CNC(=O)c1ccccc1` [Hippuric acid], the “pKa 1” value [1] is listed as 3.55.
